According to ChEMBL document CHEMBL6177939, “The role of silicon in drug discovery: a review” (RSC Med Chem, 2024):
≈ marks a conversion by molar mass, not a printed value. Blank lines part the entries; values can stand above or below the compound they belong to.

What was measured:
[1] = Acute toxicity in po dosed mouse assessed as lethal dose; type: organism-based; conditions: in vivo
Escherichia coli [2] = test: Antibacterial activity against Escherichia coli ATCC 25922 assessed as reduction in cell growth incubated for 18 hrs by two-fold serial dilution method; type: functional
Acinetobacter baumannii = test: Antibacterial activity against Acinetobacter baumannii ATCC 19606 assessed as reduction in cell growth incubated for 18 hrs by two-fold serial dilution method; type: functional
Pseudomonas aeruginosa [3] = test: Antibacterial activity against Pseudomonas aeruginosa ATCC 27853 assessed as reduction in cell growth incubated for 18 hrs by two-fold serial dilution method; type: functional
Staphylococcus aureus [4] = test: Antibacterial activity against Staphylococcus aureus ATCC 25923 assessed as reduction in cell growth incubated for 18 hrs by two-fold serial dilution method; type: functional
[5] = target: Angiotensin-converting enzyme (Homo sapiens, UniProt P12821); test: Inhibition of ACE (unknown origin) using N-[3-(2-furyl)-acryloyl]- L -phenylalanylglycylglycin as substrate incubated for 5 mins
Chain of Angiotensin-converting enzyme (P12821 whole entry): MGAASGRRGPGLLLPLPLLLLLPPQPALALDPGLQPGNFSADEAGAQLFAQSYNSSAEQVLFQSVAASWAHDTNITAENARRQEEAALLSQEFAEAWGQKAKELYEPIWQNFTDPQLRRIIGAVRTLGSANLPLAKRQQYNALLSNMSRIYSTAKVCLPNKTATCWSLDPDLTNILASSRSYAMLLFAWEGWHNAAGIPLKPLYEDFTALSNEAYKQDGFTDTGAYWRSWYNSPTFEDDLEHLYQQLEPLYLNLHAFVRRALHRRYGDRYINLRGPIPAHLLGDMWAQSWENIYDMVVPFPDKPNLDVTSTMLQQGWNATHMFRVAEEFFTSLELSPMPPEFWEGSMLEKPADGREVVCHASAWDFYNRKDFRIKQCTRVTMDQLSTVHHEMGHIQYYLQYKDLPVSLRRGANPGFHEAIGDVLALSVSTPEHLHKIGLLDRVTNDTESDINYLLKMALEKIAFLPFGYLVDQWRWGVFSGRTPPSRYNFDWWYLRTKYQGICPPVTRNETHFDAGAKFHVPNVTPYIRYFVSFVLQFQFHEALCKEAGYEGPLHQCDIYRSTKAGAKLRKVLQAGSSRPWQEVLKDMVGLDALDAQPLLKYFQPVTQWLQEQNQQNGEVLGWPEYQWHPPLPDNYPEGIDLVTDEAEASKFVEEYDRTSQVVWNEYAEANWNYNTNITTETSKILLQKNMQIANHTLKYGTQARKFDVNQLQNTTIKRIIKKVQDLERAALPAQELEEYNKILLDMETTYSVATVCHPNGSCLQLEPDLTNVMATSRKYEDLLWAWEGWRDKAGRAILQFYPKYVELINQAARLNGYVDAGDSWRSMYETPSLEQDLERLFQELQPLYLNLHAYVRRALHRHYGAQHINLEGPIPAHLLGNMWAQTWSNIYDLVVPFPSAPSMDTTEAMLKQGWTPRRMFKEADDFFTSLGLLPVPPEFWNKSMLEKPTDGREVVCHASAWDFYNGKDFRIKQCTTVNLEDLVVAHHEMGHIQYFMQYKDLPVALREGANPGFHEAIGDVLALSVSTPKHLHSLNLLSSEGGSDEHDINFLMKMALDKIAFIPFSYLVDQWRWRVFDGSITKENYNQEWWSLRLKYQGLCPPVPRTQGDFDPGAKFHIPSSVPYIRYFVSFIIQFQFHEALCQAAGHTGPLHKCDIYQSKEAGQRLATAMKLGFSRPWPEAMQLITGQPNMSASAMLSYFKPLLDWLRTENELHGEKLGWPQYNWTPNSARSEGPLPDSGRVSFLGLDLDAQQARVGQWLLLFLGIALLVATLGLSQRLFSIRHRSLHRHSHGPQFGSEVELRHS

HepG2 [6] = test: Antiproliferative activity against human HepG2 cells; type: functional, cell-based
MDA-MB-435 [7] = test: Growth inhibition of human MDA-MB-435 cells measured for 48 hrs by SRB assay; type: functional
MDA-MB-435 [8] = test: Cytotoxicity against human MDA-MB-435 cells assessed as reduction in cell viability incubated for 48 hrs by SRB assay; type: functional, cell-based; conditions: MDA-MB-435, 48 h
HepG2 [9] = test: Cytotoxicity against human HepG2 cells assessed as reduction in cell viability by XTT assay; type: functional, cell-based
Pseudomonas aeruginosa [10] = test: Antibacterial activity against Pseudomonas aeruginosa ATCC 27853 assessed as reduction in bacterial growth incubated for 24 hrs by CLSI micro-dilution method; type: functional
MCF7 [11] = test: Cytotoxicity against human MCF7 cells assessed as reduction in cell viability by XTT assay; type: functional, cell-based
Penicillium chrysogenum = test: Antifungal activity against Penicillium chrysogenum ATCC 11709 assessed as reduction in fungal growth incubated for 24 hrs by CLSI micro-dilution method; type: functional
Aspergillus niger = test: Antifungal activity against Aspergillus niger ATCC 16888 assessed as reduction in fungal growth incubated for 24 hrs by broth micro-dilution method; type: functional
Fusarium solani = test: Antifungal activity against Fusarium solani ATCC 20327 assessed as reduction in fungal growth incubated for 24 hrs by CLSI micro-dilution method; type: functional
Bacillus sp. = test: Antibacterial activity against Bacillus sp. ATCC 19986 assessed as reduction in bacterial growth incubated for 24 hrs by CLSI micro-dilution method; type: functional; conditions: Bacillus sp. (in: firmicutes)
Histone deacetylase 4 = Histone deacetylase 4 (Homo sapiens, UniProt P56524); test: Inhibition of human recombinant HDAC4 using Ac-Leu-Gly-Lys(Tfa)-AMC as substrate incubated for 30 mins by EnSpire plate reader analysis
Chain of Histone deacetylase 4 (P56524 whole entry): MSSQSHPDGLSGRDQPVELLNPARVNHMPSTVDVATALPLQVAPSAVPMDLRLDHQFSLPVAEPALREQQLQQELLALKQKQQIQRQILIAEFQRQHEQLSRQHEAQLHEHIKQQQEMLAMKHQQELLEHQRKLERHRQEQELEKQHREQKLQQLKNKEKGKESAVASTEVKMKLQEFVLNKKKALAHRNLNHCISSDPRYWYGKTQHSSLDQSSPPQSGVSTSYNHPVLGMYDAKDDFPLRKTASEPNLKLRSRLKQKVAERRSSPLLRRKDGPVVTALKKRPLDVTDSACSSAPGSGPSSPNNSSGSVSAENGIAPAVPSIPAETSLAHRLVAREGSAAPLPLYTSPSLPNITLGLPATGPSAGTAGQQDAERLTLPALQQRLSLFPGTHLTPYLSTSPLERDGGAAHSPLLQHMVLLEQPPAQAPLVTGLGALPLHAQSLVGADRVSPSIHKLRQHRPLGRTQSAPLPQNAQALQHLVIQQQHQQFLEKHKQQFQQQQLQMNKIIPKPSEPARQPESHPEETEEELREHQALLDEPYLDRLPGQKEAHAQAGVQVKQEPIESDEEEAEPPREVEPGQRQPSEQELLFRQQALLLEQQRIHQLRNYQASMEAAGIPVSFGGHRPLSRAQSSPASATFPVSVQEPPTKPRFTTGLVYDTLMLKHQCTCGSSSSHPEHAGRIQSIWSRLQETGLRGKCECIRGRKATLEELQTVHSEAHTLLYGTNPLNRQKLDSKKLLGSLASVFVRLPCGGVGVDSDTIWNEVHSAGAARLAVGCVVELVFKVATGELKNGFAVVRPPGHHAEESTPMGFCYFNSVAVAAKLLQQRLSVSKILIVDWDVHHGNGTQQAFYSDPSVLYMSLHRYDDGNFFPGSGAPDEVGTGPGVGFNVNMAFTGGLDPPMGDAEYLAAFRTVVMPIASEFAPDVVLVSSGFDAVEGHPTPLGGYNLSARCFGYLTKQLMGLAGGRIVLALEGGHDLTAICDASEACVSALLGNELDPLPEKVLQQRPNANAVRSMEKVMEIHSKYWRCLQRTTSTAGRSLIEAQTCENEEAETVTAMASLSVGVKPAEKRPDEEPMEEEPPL

[12] = target: Protein deacetylase HDAC6 (Homo sapiens, UniProt Q9UBN7); test: Inhibition of human recombinant HDAC6 using Ac-Leu-Gly-Lys(Ac)-AMC as substrate incubated for 30 mins by EnSpire plate reader analysis
Chain of Protein deacetylase HDAC6 (Q9UBN7 whole entry): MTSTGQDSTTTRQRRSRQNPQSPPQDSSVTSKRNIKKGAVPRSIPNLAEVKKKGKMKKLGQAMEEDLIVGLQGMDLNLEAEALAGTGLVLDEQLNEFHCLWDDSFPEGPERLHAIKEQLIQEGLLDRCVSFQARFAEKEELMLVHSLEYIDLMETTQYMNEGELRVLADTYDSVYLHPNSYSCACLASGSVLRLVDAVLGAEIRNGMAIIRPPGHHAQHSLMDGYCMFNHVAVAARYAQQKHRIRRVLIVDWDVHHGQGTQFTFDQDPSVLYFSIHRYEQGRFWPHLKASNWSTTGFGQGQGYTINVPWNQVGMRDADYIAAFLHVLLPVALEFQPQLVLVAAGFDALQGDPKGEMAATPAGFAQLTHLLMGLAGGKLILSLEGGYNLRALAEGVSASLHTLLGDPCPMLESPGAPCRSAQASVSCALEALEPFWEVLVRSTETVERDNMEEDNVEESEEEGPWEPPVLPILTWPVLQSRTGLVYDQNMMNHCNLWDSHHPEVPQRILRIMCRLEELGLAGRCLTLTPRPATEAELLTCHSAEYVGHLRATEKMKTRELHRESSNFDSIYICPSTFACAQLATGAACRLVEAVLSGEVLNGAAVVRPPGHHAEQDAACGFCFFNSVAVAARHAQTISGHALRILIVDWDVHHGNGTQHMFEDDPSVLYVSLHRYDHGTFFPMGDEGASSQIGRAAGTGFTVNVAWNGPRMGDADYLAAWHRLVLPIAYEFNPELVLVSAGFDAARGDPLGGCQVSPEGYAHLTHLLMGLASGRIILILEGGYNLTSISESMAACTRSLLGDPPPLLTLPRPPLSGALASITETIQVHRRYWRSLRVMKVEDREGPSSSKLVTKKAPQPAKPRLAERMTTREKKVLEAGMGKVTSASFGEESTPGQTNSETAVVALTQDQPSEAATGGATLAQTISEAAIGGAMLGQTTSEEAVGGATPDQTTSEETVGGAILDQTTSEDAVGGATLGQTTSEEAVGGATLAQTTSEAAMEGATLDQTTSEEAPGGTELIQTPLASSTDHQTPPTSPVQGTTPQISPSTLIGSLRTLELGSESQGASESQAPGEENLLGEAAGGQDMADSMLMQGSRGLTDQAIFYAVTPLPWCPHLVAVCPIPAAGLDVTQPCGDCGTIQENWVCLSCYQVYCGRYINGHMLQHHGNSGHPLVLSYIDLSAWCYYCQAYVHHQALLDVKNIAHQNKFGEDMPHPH

Histone deacetylase 1 = Histone deacetylase 1 (Homo sapiens, UniProt Q13547); test: Inhibition of human recombinant HDAC1 using Ac-Leu-Gly-Lys(Ac)-AMC as substrate incubated for 30 mins by EnSpire plate reader analysis
Chain of Histone deacetylase 1 (Q13547 whole entry): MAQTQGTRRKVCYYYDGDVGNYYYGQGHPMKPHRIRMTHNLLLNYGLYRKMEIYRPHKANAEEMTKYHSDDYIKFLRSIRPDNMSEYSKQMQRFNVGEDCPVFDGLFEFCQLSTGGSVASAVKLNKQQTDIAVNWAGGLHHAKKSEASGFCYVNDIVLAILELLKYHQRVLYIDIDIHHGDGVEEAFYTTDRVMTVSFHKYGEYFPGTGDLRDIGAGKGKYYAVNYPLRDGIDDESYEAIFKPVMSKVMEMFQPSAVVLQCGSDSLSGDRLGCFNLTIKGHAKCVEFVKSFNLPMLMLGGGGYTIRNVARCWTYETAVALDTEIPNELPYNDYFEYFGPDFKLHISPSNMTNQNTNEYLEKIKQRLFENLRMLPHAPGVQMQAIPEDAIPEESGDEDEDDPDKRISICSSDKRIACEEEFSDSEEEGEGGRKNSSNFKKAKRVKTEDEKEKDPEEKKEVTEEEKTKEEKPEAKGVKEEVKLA

Histone deacetylase 5 = Histone deacetylase 5 (Homo sapiens, UniProt Q9UQL6); test: Inhibition of human recombinant HDAC5 using Ac-Leu-Gly-Lys(Tfa)-AMC as substrate incubated for 30 mins by EnSpire plate reader analysis
Histone deacetylase 2 = Histone deacetylase 2 (Homo sapiens, UniProt Q92769)
P388 = test: Antiproliferative activity against mouse P388 cells; type: functional, cell-based
BJAB = test: Cytotoxicity against human BJAB cells assessed as lethal dose measured after 48 hrs; type: functional; conditions: read-out: LD50 (the source's name)
Staphylococcus aureus [13] = test: Antibacterial activity against Staphylococcus aureus; type: functional
Pseudomonas aeruginosa [14] = test: Antibacterial activity against Pseudomonas aeruginosa; type: functional
Escherichia coli [15] = test: Antibacterial activity against Escherichia coli; type: functional
Aedes aegypti = test: […] activity against Aedes aegypti assessed as protection time at 0.5 microg/cm; type: functional
Acetylcholinesterase = Acetylcholinesterase (Homo sapiens, UniProt P22303); test: Inhibition of AChE (unknown origin) using acetylthiocholine iodide as substrate by Ellman's method
Chain of Acetylcholinesterase (P22303 whole entry): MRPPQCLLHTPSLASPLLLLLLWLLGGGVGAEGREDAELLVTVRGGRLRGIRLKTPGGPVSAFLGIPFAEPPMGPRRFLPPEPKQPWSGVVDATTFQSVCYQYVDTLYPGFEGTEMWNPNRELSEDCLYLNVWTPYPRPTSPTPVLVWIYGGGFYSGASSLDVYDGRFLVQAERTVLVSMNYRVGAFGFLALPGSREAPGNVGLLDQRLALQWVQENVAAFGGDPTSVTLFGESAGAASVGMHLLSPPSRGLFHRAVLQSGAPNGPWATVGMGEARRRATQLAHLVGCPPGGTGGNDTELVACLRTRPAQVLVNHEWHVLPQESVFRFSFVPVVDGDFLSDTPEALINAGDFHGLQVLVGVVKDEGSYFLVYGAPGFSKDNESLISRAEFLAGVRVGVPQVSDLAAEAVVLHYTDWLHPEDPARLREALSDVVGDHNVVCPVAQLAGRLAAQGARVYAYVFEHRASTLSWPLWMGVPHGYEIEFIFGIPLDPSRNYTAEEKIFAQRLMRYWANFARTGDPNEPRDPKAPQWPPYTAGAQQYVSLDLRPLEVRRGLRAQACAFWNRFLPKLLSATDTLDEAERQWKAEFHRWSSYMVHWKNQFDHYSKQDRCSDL

Caco-2 = test: Antiproliferative activity against human Caco-2 cells assessed as reduction in cell growth incubated for 24 hrs; type: functional, cell-based; conditions: Caco-2, 24 h
MCF7 [16] = test: Antiproliferative activity against human MCF7 cells assessed as reduction in cell growth incubated for 24 hrs; type: functional, cell-based; conditions: MCF7, 24 h
HT-29 = test: Antiproliferative activity against human HT-29 cells assessed as reduction in cell growth incubated for 24 hrs; type: functional, cell-based; conditions: HT-29, 24 h
NCI-H460 = test: Antiproliferative activity against human NCI-H460 cells assessed as reduction in cell growth incubated for 24 hrs; type: functional, cell-based; conditions: NCI-H460, 24 h
A549 = test: Antiproliferative activity against human A549 cells; type: functional, cell-based
T47D = test: Growth inhibition of human T47D cells measured for 48 hrs by SRB assay; type: functional
HeLa = test: Growth inhibition of human HeLa cells measured for 48 hrs by SRB assay; type: functional
WiDr = test: Growth inhibition of human WiDr cells measured for 48 hrs by SRB assay; type: functional
HT-1080 = test: Cytotoxicity against human HT-1080 cells assessed as reduction in cell growth by measuring lethal concentration for 72 hrs by MTT assay; type: functional
NIH3T3 = test: Cytotoxicity against mouse NIH3T3 cells assessed as reduction in cell growth by measuring lethal concentration for 72 hrs by MTT assay; type: toxicity, cell-based; conditions: nih3t3, 72 h
MG-22A = test: Cytotoxicity against mouse MG-22A cells assessed as reduction in cell growth by measuring lethal concentration for 72 hrs by MTT assay; type: functional

Structure (SMILES): CCC[Si](C)(COC(N)=O)COC(N)=O
LD50 [1]: > 1000 mg/kg

Structure (SMILES): C=C1C[C@](OC)([C@H](O)C(=O)N[C@H]2OCO[C@H]3[C@@H]2O[C@H](C[C@H](O)CO)C(C)(C)[C@@H]3OC)O[C@H](C)[C@@H]1C [MYCALAMIDE A]
IC50 (P388): 0.1 ng/mL (≈ 0.000199 µM)

Structure (SMILES): CC(C)(C)[Si](C)(C)OC[C@H]1C[C@@H](n2cc(Br)c(=O)[nH]c2=O)C=C1CO
CC50 (BJAB): 46 µM

Structure (SMILES): CC1(C)CCN(C(=O)C2=CCCCC2)CC1
Time (Aedes aegypti): 520 min

Structure (SMILES): C[Si]1(Cl)C=CC(=O)C1=P(c1ccccc1)(c1ccccc1)c1ccccc1 (stereo not given)
IC50 (Acetylcholinesterase): 0.113 µM

Structure (SMILES): CC(C)C(C)(C)[Si](C)(C)OC[C@H]1C[C@@H](n2cc(Br)c(=O)[nH]c2=O)C=C1CO
CC50 (BJAB): 9 µM

Structure (SMILES): C[Si]1(Cl)C=C/C(=N\c2ccccc2)C1=P(c1ccccc1)(c1ccccc1)c1ccccc1 (stereo not given)
IC50 (Acetylcholinesterase): 0.113 µM

Structure (SMILES): CCN(CC)C(=O)c1cccc(C)c1 [DIETHYLTOLUAMIDE]
Time (Aedes aegypti): 616 min

Structure (SMILES): CC(C)(C)[Si](Oc1ccc2oc(=O)ccc2c1)(c1ccccc1)c1ccccc1
GI50 (T47D): 26.6 µM
GI50 (HeLa): 24.1 µM
GI50 (WiDr): 32.2 µM

Structure (SMILES): CCCCCCCCCCOCC[N+]1(CCC[Si](C)(C)C)CCc2ccccc2C1.[I-] (stereo not given)
LC50 (HT-1080): 0.1 µg/mL
LC50 (NIH3T3): 0.1 µg/mL
LC50 (MG-22A): 0.1 µg/mL

The next lines start with results.

MIC (Escherichia coli [2]): 0.2 µg/mL (≈ 0.552 µM)
MIC (Acinetobacter baumannii): 0.2 µg/mL (≈ 0.552 µM)
MIC (Pseudomonas aeruginosa [3]): 0.2 µg/mL (≈ 0.552 µM)
MIC (Staphylococcus aureus [4]): 0.2 µg/mL (≈ 0.552 µM)
Structure (SMILES): O=C1c2ccccc2C(=O)N1CCC[Si-]123OCC[N+]1(CCO2)CCO3 (stereo not given)

IC50 [5]: 3.04 µM
Structure (SMILES): CC(C)CC(NC(=O)c1ccccc1)[Si](O)(O)CC(C)C(=O)N1CCC[C@H]1C(=O)O (mixture of isomers)

EC50 (HepG2 [6]): 16.6 µM
Structure (SMILES): COc1ccc([Si](C)(C)[C@@H]2[C@H](CC(=O)N3CCC[C@H]3CO)O[C@@]3(C(=O)N(Cc4cccc(I)c4)c4ccccc43)[C@@H]2C)cc1

GI50 (MDA-MB-435 [7]): 0.021 µM
Structure (SMILES): CC[C@@]1(O)C(=O)OCc2c1cc1n(c2=O)Cc2c-1nc1ccc(O)cc1c2[Si](C)(C)C(C)(C)C [AR-67]
IC50 (MDA-MB-435 [8]): 0.014 µM

MIC (Pseudomonas aeruginosa [10]): 1.2 µg/mL (≈ 5.16 µM)
MIC (Penicillium chrysogenum): 1.2 µg/mL (≈ 5.16 µM)
MIC (Aspergillus niger): 1.2 µg/mL (≈ 5.16 µM)
MIC (Fusarium solani): 1.2 µg/mL (≈ 5.16 µM)
MIC (Bacillus sp.): 1.2 µg/mL (≈ 5.16 µM)
Structure (SMILES): NCCC[Si-]123OCC[N+]1(CCO2)CCO3 (stereo not given)
IC50 (HepG2 [9]): 150 µg/mL (≈ 646 µM)
IC50 (MCF7 [11]): 65 µg/mL (≈ 280 µM)

IC50 (Histone deacetylase 4): 0.6 µM
IC50 [12]: 0.6 µM
IC50 (Histone deacetylase 1): 0.6 µM
IC50 (Histone deacetylase 5): 0.6 µM
IC50 (Histone deacetylase 2): 0.6 µM
Structure (SMILES): C[Si](O)(O)CCCCCCC(=O)Nc1ccccc1

MIC (Staphylococcus aureus [13]): 0.195 µg/mL (≈ 0.325 µM)
MIC (Pseudomonas aeruginosa [14]): 6.3 µg/mL (≈ 10.5 µM)
MIC (Escherichia coli [15]): 6.3 µg/mL (≈ 10.5 µM)
Structure (SMILES): CCN(CC)c1ccc(/C=N/CCC[Si](OC)(OC)OC)c(OCc2cn(CCOc3ccccc3[N+](=O)[O-])nn2)c1

IC50 (Caco-2): 40.1 µM
IC50 (MCF7 [16]): 3.5 µM
IC50 (HT-29): 3.6 µM
IC50 (NCI-H460): 3.6 µM
Structure (SMILES): CC(C)OC(=O)/C(=N/NC(=O)c1ccc(CO[Si](C)(C)C(C)(C)C)o1)c1ccccc1

EC50 (A549): 42.8 µM
EC50 (HepG2 [6]): 32.5 µM
Structure (SMILES): COc1ccc([Si](C)(C)[C@@H]2[C@@H](CCn3cc(CCO)nn3)O[C@]3(C(=O)N4c5c(ccc(OC)c53)C(C)=CC4(C)C)[C@H]2C)cc1

MIC (Pseudomonas aeruginosa [10]): 1.2 µg/mL (≈ 3.41 µM)
MIC (Penicillium chrysogenum): 1.2 µg/mL (≈ 3.41 µM)
MIC (Aspergillus niger): 1.2 µg/mL (≈ 3.41 µM)
MIC (Fusarium solani): 1.2 µg/mL (≈ 3.41 µM)
MIC (Bacillus sp.): 1.2 µg/mL (≈ 3.41 µM)
Structure (SMILES): Nc1ccc(O)c(/C=N/CCC[Si-]234OCC[N+]2(CCO3)CCO4)c1 (stereo not given)
IC50 (HepG2 [9]): 150 µg/mL (≈ 427 µM)
IC50 (MCF7 [11]): 65 µg/mL (≈ 185 µM)
